The results in this text go back to patent US10927136B2, “Phosphorus prodrugs of pyrazolo-substituted pyrimidine sGC stimulators” (Cyclerion Therapeutics, Inc., priority 2016, dated 2021).

Data set [1] in a line: Rat PK following intravenous and oral dosing. It counts as in vivo, male Sprague-Dawley rats. On the procedure: PK in rats was determined following intravenous and oral dosing.
For the intravenous (IV) and oral (PO) experiments, two groups of 4 male Sprague-Dawley rats each were used. The PO group was dosed with 3.0 mg/kg of Compound I-1 formulated as a solution in phosphate buffered saline (PBS). The IV group was dosed with 1.0 mg/kg of Compound I-1 formulated as a solution in phosphate buffered saline (PBS). IV doses were administered through an indwelling catheter in the jugular vein. Following dose administration, the catheter was flushed with ca. 0.25 mL of saline. PO doses were delivered to the stomach using a syringe and gavage tube. Following oral dosage administration, the gavage tube was flushed with approximately 0.5 mL of water to ensure complete delivery of the full dose.
Plasma samples were collected as follows: for the IV and PO experiments, samples were collected at 5 min, 15 min, 30 min, 1 hour, 2 hours, 4 hours, 6 hours, 8 hours, 12 hours, 16 hours, 20 hours and 24 hours, post-dosing. Blood samples (0.25 mL) were collected from the jugular vein. These samples were kept on ice until processed for plasma. Blood samples were centrifuged at 3200 rpm for 5 minutes at approximately 5° C. within 1 hour of collection. Plasma was directly transferred to a 96-well plate tube (0.125 mL). Plug caps were placed on the tubes and the tubes frozen at approximately −70° C. and stored until analysis.
Plasma was collected and analyzed for the presence of Compound I-1 and Intermediate 3 derived from Compound I-1.
Intermediate 3, Compound I-1 and the internal standard (IS, Compound Z) were extracted from plasma by precipitation. Samples were analyzed using liquid chromatography (LC) with tandem mass spectrometric detection (MS/MS) using electrospray ionization. The standard curve range was from 0.1 to 400 ng/mL.
Thawed plasma samples and the required amount of plasma for standards, blanks and dilutions. Prepared crash solution: room temp ACN containing 1 ng/mL Compound Z as Internal Standard. Created a 1× mixed (Intermediate 3 and Compound I-1) standard curve by diluting the 100× stocks (5 uL of each 100× standard into 495 uL of plasma). Transferred 50 uL of each plasma sample/dilution, standard, or blank. Added 200 uL of the crash solution containing IS. Vortexed for 5 minutes. Centrifuged at 16,000 g at room temperature for 10 min. Transferred 200 uL of each supernatant to a plate. Dried under nitrogen in a TurboVap at 55° C. Re-suspended each sample in 50 uL of 0.1% Formic Acid, covered and vortexed. Analyzed by LC-MSMS.

The next data set deals with T1, HEK (Homo sapiens, UniProt Q02108+Q02153).
T1 construct: sGC enzyme activity values in HEK cells; endogenous in cells; host or cells: HEK cells
T1 sequence (Q02153 1-619): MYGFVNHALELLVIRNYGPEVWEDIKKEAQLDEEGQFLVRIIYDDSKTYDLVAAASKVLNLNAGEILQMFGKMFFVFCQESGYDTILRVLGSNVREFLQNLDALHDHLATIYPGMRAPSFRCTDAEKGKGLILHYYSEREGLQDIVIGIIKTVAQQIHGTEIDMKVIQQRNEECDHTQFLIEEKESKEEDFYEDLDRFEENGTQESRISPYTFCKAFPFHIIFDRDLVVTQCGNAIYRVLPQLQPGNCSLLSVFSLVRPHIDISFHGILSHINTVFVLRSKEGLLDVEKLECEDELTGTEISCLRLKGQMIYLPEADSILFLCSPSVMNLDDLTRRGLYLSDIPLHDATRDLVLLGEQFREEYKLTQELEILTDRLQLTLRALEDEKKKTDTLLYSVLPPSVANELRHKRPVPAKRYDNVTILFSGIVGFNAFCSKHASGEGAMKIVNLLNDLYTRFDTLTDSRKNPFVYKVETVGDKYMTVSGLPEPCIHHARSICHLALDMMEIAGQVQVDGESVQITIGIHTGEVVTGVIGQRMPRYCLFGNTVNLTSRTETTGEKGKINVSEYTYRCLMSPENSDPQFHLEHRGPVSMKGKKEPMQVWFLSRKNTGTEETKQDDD
T1 sequence (Q02108 1-690): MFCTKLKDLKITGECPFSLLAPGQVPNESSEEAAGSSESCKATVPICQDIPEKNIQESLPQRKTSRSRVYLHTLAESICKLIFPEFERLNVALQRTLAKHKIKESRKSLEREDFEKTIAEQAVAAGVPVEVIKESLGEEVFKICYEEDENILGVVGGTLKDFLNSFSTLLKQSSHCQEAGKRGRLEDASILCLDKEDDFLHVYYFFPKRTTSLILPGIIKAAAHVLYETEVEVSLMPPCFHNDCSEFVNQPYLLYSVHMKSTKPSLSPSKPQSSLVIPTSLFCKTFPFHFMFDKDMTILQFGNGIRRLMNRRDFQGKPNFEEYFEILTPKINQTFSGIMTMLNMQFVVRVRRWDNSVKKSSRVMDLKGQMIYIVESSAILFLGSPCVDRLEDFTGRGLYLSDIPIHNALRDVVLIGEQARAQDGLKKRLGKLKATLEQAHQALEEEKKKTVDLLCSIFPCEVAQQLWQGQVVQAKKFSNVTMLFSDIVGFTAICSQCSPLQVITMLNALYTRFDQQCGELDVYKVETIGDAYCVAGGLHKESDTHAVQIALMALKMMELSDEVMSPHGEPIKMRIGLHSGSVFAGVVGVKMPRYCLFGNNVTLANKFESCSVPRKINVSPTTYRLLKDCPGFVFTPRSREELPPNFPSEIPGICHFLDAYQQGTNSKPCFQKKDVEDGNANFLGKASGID
The experiment in a line: HEK EC50 quoted in rat PO PK table (assay version not stated). It is filed as cell-based. As to conditions: listed in rat PO PK table for Intermediate 3.

The mark [2] stands for this setting: male, Sprague-Dawley, plasma, Compound I-1 1 mg/kg IV in PBS, analyte Compound I-1.

As a reminder, the AUC(0-inf) is the area under the concentration-time curve extrapolated to infinity. A higher AUC(0-inf) goes with high exposure. One may read the Cmax as the peak of the concentration-time curve. Broadly, the half-life is the time in which the quantity being followed falls by half. A high value points to slow loss. Regarding `O=P(O)(O)OC(CNc1nc(-c2cc(-c3ccon3)n(Cc3ccccc3F)n2)ncc1F)(C(F)(F)F)C(F)(F)F` [Compound I-1], the “prodrug in plasma samples” value in data set [1] (following PO dosing of Compound I-1 3.0 mg/kg) is “not observed in any plasma samples”. In data set [1] (setting [2]), this compound registered an AUC(0-inf) of 549 ng·h/mL, a Cmax of 2780 ± 2450 ng/mL and a clearance of 34.3 mL/min/kg. In addition, the half-life in data set [1] (male, Sprague-Dawley, plasma, iv, 1 mg/kg, Compound I-1 1 mg/kg IV in PBS, analyte Compound I-1) was around 9 min.

One may read the EC50 as the concentration needed to bring the measured effect to its halfway point. Read a high EC50 as a need for much substance. In the case of `OC(CNc1nc(-c2cc(-c3ccon3)n(Cc3ccccc3F)n2)ncc1F)(C(F)(F)F)C(F)(F)F` [Intermediate 3], on HEK, the midpoint of the response, the EC50, lay at 100 nM.
